Experimental data taken from patent US20260207585A1, “METHODS AND COMPOSITIONS FOR THE TREATMENT OF PARKINSON'S DISEASE, HUNTINGTON'S DISEASE, AMYOTROPHIC LATERAL SCLEROSIS, AND LEARNING DISORDERS” (Cedars-Sinai Medical Center, priority 2022, published 2026).
Like-named read-outs stand apart in the source and are kept apart here.

Legend:
GLP = target: T1, GLP (Homo sapiens, UniProt Q9H9B1); assay: Methyltransferase inhibition panel: GLP; assay type: biochemical
T1 sequence (Q9H9B1 1-1298): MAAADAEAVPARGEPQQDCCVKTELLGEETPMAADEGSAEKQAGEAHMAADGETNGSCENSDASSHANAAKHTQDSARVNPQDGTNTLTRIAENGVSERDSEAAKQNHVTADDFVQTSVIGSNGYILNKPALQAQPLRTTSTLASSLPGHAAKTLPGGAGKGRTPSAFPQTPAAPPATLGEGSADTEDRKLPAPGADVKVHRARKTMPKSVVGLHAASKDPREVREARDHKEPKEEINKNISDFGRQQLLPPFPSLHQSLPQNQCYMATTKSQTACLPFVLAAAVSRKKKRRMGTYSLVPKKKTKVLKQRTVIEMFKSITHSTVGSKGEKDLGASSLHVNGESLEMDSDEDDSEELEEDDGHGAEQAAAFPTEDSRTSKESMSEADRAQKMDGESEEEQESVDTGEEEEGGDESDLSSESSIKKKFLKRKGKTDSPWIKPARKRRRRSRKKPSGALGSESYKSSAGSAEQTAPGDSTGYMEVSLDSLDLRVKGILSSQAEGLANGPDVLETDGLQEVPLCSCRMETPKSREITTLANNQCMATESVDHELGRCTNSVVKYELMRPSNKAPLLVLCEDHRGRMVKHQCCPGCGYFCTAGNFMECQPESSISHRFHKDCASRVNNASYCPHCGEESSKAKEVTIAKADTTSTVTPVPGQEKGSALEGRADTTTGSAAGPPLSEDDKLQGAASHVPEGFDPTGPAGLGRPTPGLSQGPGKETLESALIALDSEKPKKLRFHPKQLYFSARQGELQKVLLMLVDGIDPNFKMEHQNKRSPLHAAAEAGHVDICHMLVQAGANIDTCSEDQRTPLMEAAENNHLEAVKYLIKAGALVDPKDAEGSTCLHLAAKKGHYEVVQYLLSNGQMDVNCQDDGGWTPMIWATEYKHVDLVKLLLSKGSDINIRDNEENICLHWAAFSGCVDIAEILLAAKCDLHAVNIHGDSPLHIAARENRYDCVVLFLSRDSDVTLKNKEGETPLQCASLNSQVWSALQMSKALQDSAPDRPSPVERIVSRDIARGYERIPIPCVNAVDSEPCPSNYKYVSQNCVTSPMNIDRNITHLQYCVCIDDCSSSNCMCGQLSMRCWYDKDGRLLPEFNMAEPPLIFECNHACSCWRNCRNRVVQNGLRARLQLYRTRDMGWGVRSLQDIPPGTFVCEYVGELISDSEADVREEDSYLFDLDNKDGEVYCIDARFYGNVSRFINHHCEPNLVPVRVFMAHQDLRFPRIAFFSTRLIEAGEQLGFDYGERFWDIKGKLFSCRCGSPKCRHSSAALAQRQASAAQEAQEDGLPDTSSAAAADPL
Procedure: (§1) The ability of ETP69 to inhibit methyltransferases was tested.

[1] = tested on: wildtype and AD model (APP/PS1-transgenic) mice; assay: Visual stimuli X-maze (ViS4M) test, colour and contrast modes; assay type: in vivo
Procedure: The effects of single and repeated ETP69 injections in mice were tested. The experimental timeline is depicted in FIG. 5. Three parallel injection conditions were tested: a single ETP69 condition, a boosted ETP69 injection, and repeated ETP69 injections. The single injection mice received one injection of ETP69 or DMSO at Day 0. The mice that received a boosted injection received one injection of ETP69 or DMSO at day 0 and one injection at day 9. The mice that received repeated injections received 11 injections of ETP69 or DMSO at day 0 or day 9. Both wildtype and AD model (APP/PS1-transgenic) mice were tested.
FIG. 6C-6F depicts the results of the mice on the color mode of the visual stimuli X-maze test. […] FIG. 6G-611 depict the results of the contrast mode of the visual stimuli X-maze test.
Old (18-month-old) mice were administered ETP69. Both a neurodegenerative model (AD+) and wild type siblings were tested. Mice were treated with i.p. injection of ETP69 [E; 10 mg/kg dissolved in dimethyl sulfoxide (DMSO)].

BDNF and VGF pathways = assay: Gene expression in treated mice (BDNF and VGF pathways); assay type: in vivo; conditions: mice treated with ETP69 vs DMSO
Procedure: Gene expression was measured in mice treated with ETP69 and DMSO. As depicted in FIG. 3, genes in the BDNF and VGF pathways were activated. These pathways are consistent with protective neurotrophic support. This pathway correlates with reduced H3K9me3 and improved cognition. FIG. 4A depicts genes in the BDNF pathway inhibited (left) and activated (right) by ETP69. The inactivated genes are quantified in FIGS. 4B-4F. The activated genes are quantified in FIGS. 4G-4M.

PRMT3 = PRMT3 (Homo sapiens, UniProt O60678); assay: Methyltransferase inhibition panel: PRMT3; assay type: biochemical
PRMT3, sequence (O60678 whole entry): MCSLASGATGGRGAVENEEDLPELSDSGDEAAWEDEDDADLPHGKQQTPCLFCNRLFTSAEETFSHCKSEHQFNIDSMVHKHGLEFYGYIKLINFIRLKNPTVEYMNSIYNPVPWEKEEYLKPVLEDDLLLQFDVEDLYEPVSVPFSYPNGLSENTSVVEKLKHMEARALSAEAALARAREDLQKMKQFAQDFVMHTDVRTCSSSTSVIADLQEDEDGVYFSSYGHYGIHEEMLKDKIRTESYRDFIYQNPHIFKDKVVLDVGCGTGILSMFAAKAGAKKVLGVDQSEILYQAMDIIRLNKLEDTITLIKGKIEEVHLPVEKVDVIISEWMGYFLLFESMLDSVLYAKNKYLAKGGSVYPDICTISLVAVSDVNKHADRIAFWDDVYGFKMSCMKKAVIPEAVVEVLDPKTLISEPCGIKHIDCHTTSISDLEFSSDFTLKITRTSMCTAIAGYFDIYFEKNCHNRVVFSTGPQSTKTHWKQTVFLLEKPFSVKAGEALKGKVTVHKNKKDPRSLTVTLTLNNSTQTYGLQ
Procedure: as §1

GFAP = GFAP staining of brain sections; assay type: in vivo; conditions: AD+ mice; 4 and 15 days
Description: ETP69 administration reduced AD-related brain pathology (FIGS. 9A-9C). Brain sections were stained for H3K9me3, 6E10 and GFAP.

EZH2(Y641F) Complex = EZH2(Y641F) Complex (Homo sapiens, UniProt Q15910, Y641F); assay: Methyltransferase inhibition panel: EZH2(Y641F) Complex; assay type: biochemical; conditions: NT1721 20 μM; substrate Core Histone 0.05 mg/mL
EZH2(Y641F) Complex, sequence (Q15910 whole entry Y641F): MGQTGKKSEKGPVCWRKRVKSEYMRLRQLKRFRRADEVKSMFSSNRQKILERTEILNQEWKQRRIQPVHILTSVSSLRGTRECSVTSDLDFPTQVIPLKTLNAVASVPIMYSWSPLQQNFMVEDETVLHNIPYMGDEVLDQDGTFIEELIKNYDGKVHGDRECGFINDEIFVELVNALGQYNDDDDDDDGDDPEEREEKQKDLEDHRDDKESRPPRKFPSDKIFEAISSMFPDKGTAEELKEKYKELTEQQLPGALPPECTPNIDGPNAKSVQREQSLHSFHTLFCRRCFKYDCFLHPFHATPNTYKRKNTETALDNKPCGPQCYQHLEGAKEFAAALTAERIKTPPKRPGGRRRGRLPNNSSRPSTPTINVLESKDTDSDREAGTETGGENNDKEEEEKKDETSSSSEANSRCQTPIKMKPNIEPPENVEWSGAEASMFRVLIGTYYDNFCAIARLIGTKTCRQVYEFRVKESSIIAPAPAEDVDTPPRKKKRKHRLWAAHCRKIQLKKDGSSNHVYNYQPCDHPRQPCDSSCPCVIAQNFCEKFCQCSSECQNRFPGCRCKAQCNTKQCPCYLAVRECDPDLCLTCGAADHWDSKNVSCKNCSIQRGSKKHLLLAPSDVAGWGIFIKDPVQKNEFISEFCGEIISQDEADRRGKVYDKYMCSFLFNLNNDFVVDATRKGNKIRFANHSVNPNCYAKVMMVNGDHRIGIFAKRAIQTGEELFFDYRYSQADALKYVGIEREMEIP
EZH2(Y641F) Complex, sequence (O75530 whole entry partner): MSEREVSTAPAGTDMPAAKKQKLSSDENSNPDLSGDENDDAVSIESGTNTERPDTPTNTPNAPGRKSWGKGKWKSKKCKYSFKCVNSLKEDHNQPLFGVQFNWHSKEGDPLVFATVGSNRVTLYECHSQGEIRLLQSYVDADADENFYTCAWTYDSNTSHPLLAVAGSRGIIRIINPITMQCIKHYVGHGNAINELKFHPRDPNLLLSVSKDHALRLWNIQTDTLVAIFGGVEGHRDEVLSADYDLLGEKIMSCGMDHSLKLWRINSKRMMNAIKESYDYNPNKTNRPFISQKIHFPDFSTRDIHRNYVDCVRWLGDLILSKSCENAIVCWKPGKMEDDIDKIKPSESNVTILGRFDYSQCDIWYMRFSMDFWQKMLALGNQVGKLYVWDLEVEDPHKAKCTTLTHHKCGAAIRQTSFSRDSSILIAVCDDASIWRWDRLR
EZH2(Y641F) Complex, sequence (Q15022 whole entry partner): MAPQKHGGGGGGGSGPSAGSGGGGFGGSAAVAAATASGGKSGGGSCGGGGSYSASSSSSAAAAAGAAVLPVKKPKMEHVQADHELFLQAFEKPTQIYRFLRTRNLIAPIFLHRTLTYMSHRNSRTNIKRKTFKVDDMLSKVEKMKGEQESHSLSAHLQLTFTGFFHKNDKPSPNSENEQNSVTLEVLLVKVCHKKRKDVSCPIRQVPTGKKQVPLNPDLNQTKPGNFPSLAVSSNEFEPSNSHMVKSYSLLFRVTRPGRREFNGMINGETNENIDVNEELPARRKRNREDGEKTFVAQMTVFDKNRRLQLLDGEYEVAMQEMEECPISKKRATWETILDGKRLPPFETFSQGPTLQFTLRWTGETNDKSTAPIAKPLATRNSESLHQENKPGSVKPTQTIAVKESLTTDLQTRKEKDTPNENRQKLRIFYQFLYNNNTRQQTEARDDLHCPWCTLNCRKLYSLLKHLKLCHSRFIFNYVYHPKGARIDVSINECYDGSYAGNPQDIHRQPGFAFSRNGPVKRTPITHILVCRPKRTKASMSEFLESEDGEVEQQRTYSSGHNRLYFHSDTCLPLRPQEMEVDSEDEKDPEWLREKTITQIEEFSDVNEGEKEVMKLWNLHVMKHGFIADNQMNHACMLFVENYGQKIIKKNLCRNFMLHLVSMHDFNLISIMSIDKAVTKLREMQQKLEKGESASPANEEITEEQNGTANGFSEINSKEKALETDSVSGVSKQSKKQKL
EZH2(Y641F) Complex, sequence (Q09028 whole entry partner): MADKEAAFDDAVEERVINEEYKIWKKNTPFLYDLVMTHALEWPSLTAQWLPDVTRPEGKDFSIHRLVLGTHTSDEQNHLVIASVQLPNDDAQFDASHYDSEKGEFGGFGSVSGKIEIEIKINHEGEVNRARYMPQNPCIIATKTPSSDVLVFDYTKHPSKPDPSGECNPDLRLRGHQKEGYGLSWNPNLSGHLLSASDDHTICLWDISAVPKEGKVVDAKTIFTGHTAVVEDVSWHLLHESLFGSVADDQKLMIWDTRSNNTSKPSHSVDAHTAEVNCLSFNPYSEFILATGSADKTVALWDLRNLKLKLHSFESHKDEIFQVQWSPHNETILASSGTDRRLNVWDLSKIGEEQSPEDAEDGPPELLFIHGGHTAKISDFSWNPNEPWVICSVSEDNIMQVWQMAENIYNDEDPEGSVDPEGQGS
EZH2(Y641F) Complex, sequence (Q6ZN18 whole entry partner): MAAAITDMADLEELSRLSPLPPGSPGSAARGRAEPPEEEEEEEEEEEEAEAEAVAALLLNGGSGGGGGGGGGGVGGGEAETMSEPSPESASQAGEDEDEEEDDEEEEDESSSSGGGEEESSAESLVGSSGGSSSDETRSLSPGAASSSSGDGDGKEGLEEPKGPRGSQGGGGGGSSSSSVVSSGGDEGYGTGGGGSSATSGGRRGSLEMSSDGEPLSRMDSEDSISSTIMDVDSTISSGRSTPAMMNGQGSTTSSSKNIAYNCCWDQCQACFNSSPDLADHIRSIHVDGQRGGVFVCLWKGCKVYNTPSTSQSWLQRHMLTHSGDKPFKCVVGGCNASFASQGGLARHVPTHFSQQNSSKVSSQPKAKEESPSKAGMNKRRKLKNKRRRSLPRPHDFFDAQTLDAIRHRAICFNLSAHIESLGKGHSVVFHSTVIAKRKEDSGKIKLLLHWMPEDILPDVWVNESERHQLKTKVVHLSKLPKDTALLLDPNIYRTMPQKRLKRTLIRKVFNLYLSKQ
Procedure: as §1

[2] = read-out: Enzyme % Activity (relative to DMSO controls) Data 1
[3] = read-out: Enzyme % Activity (relative to DMSO controls) Data 2

CN1C(=O)[C@@]23C[C@](C)(C#N)[C@H](c4ccc5c(c4)OCO5)N2C(=O)[C@]1(C)SS3 (racemic) [ETP69, Rac-(3S,6S,7S,8aS)-6-(benzo[d][1,3]dioxol-5-yl)-2,3,7-trimethyl-1,4-dioxohexahydro-6H-3,8a-epidithiopyrrolo[1,2-a]pyrazine-7-carbonitrile]
remaining activity at 2.5 µM (GLP; [2]): 91.4% | remaining activity at 2.5 µM (GLP; [3]): 94.2% | percent alternation and bidirectional movement ([1]; color mode, AD+ mice): significant increase | percent alternation ([1]; contrast mode, AD+ mice): significant increase | colour X-maze spontaneous alternations ([1]; old WT mice, single dose 10 mg/kg i.p., p=0.0027): increased | genes in the BDNF and VGF pathways (BDNF and VGF pathways): activated | remaining activity at 20 µM (PRMT3; [2]): 94% | remaining activity at 20 µM (PRMT3; [3]): 95% | GFAP (GFAP): significant decrease | Enzyme % Activity (relative to DMSO controls) Data 1 (EZH2(Y641F) Complex): 102.54% | Enzyme % Activity (relative to DMSO controls) Data 2 (EZH2(Y641F) Complex): 102.95%
